Source: patent publication US20230190870A1, “Method for Treating Lysosomal Storage Diseases with Histatin Peptides” (THE BOARD OF TRUSTEES OF THE UNIVERSITY OF ILLINOIS, priority 2020, published 2023)
Square brackets hold non-standard residues; d marks the D form. Peptide text beside a SMILES is read from it. pS = N[C@@H](COP(=O)(O)O)C(=O)O

Key:
TMEM97 (108-176) = target: T1, TMEM97 (108-176) (Homo sapiens, UniProt Q5BJF2); assay: Isothermal titration calorimetry, TMEM97 (108-176); format: binding; conditions: ITC
T1 construct: Three peptides, TMEM97 (108-176), TMEM97 (108-143) and TMEM97 (144-176), were synthesized; made in house; host or cells: chemical solid-phase synthesis (Fmoc, Wang resin)
Description: Isothermal Titration Calorimetry (ITC). The three synthesized peptides, TMEM97 (108-176), TMEM97 (108-143) and TMEM97 (144-176) were prepared in ITC buffer (10 mM Tris, pH 7.4, 150 mM NaCl, 0.05% polysorbate 20) at 40 μM concentration and placed in the sample cell. All ITC experiments were performed while stirring at 395 rpm, in ITC buffer at 25° C. using a VP-ITC titration microcalorimeter from MicroCal™, LLC (Northampton, Mass.). The microsyringe was loaded with a Histatin 1 solution (500 μM in ITC buffer). All titrations were conducted using an initial injection of 2.5 μL followed by 35 identical injections of 5 μL with a duration of 16 seconds (per injection) and a spacing of 210 seconds between injections. The buffer control titration (Histatin 1 into buffer) signals were subtracted from the experimental data. The collected data were evaluated using NITPIC (NIH), SEDPHAT (NIH), and GUSSI (NIH).
To determine more precisely which segment of TMEM97 is necessary for binding of Hst1, multiple synthetic fragments of TMEM97 were generated (Table 6) and binding to Hst1 was tested using SPR. […] Smaller fragments of the C-terminal of TMEM97 were then constructed to represent the (predicted) luminal (108-143) and cytoplasmic (144-176) exposed segments of the C-terminus of TMEM97 based on modeling experiments previously described. […]

[1] = target: T2, Synthetic TMEM97 (108-176) (Homo sapiens, UniProt Q5BJF2); assay: Surface plasmon resonance, immobilized synthetic TMEM97 (108-176); format: binding; conditions: SPR
T2 construct: Three peptides, TMEM97 (108-176), TMEM97 (108-143) and TMEM97 (144-176), were synthesized; made in house; host or cells: chemical solid-phase synthesis (Fmoc, Wang resin)
Description: Surface Plasmon Resonance (SPR). Recombinant full-length TMEM97 (also called MAC30, from HEK293 cells) and GST-TMEM97 (108-176, recombinant GST-C terminal from wheat germ) proteins were purchased from OriGene (Rockville, Md.) and Abnova (Taipei City, Taiwan), respectively. Three peptides, TMEM97 (108-176), TMEM97 (108-143) and TMEM97 (144-176), were synthesized. All proteins and peptides were initially prepared in HBS buffer containing 10 mM HEPES, pH 7.4, 150 mM NaCl, and 0.05% surfactant P20. The CM5 sensor surface was first activated by 1-ethyl-3-(3-dimethylaminopropyl) carbodiimide hydrochloride (EDC)/N-hydroxy succinimide (NHS) mixture using a Biacore T200 or Biacore 8K instrument (GE Healthcare). […] Flow channels 1 and 3 were used as references.
The three synthesized peptides were diluted to 50 μg/mL in 10 mM sodium acetate at pH 4.0 and immobilized to flow channels 2, 3 and 4, respectively, on another sensor chip. The unmodified surfaces on a flow channel 1 were used as a reference control. Histatin solutions with a series of increasing concentrations (0.78-25 μM at 2-fold dilution) were applied to all four channels at a 30 μL/minute flow rate at 25° C. The data were double-referenced with reference channel and zero concentration responses, and reference subtracted sensorgrams were fitted with 1 to 1 Langmuir kinetic model using a Biacore T200 evaluation software V3.0 or Insight evaluation software. The equilibrium dissociation constants ([…]) were determined from two rate constants (KD=kd/ka).
To determine more precisely which segment of TMEM97 is necessary for binding of Hst1, multiple synthetic fragments of TMEM97 were generated (Table 6) and binding to Hst1 was tested using SPR. […] Smaller fragments of the C-terminal of TMEM97 were then constructed to represent the (predicted) luminal (108-143) and cytoplasmic (144-176) exposed segments of the C-terminus of TMEM97 based on modeling experiments previously described. […] SPR results for Hst1 were confirmed using ITC as an orthogonal analytical method.
To determine the region(s) of Hst1 that mediate binding to TMEM97, SPR testing was performed with various Hst1 fragments and either recombinant TMEM97 (GST-tagged, wheat-germ derived, C-terminal fragment TMEM97 (108-176)) or synthesized TMEM97 (TMEM97 (108-176), TMEM97 (108-143) and TMEM97 (144-176)).

[2] = system: Human corneal epithelial cells; assay: Cell viability of BAK-treated human corneal epithelial cells; format: cell-based; conditions: benzalkonium chloride (BAK) treatment
Excerpt: Apoptosis. […] BAK and hOsm are standard inducers of corneal epithelial and neuronal cell death and toxicity, phenomena which are associated with ocular surface pain and chronic pain syndromes.

[3] = Circular dichroism secondary structure analysis (DichroWeb); format: physicochemical
Description: Circular Dichroism (CD). CD analysis was performed on a Jasco 815 CD spectrometer at room temperature. TMEM97 (108-176) and Hst1 full-length peptides were prepared as 10 mM stock in 25% DMSO and water, respectively, and diluted to 0.15 mg/mL final concentration in 10 mM […] buffer. A total of 400 μL of each sample was added into a 1 mm quartz sample cell, and CD spectra were recorded from 260 nm to 190 nm wavelength. Data points were measure in 0.5 nm wavelength step at a scanning speed of 100 nm/minute. A total of five spectra were acquired for each sample and averaged. […] buffer without peptide was used as a control curve, which was subsequently subtracted from the CD spectra of peptide samples. The resulting buffer control subtracted CD intensity row data in millidegrees were submitted to DichroWeb and fitted with multiple embedded models and converted to mean residue ellipticity.
Subsequently, the hypothesis that interaction between Hst1 and TMEM97 could affect the structure of each protein was tested. Also, the secondary structure of Hst1 and TMEM97 was tested in solution using CD measurements. It was noted that Hst1 alone is mostly disordered (over 50%) with some degree of β-strand, while TMEM97 (108-176) contains some α-helical and β-strand regions with ˜34% disordered regions. According to CD spectra comparison, there seemed to be more secondary structures formed upon Hst1 binding to TMEM97 (108-176).

NPC1 KD cells = assay: LC3 immunolocalization in NPC1 KD cells (autophagy); format: cell-based; conditions: 20 μM or 50 μM
Excerpt: Autophagy. NPC1-deficiency results in increased autophagy as evidenced by elevated microtubule-associated protein 1 light chain 3 (LC3) levels, numerous autophagic vacuoles and enhanced degradation of long-lived proteins (Pacheco, et al. (2007) Human Mol. Genet. 16(12):1495-1503).

[4] = CD, fraction of secondary structure

T2 sequence (Q5BJF2 108-176): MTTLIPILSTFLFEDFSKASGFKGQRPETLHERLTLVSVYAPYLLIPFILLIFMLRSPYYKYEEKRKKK
T1 sequence (Q5BJF2 108-176): as above

## CC(C)C[C@H](NC(=O)[C@H](Cc1ccc(O)cc1)NC(=O)[C@H](CC(N)=O)NC(=O)[C@H](CO)NC(=O)CNC(=O)[C@H](Cc1ccc(O)cc1)NC(=O)[C@H](CC(=O)O)NC(=O)CNC(=O)[C@H](Cc1ccc(O)cc1)NC(=O)[C@H](Cc1ccccc1)NC(=O)[C@@H]1CCCN1C(=O)[C@H](Cc1ccccc1)NC(=O)[C@H](CCC(=O)O)NC(=O)[C@H](CCCNC(=N)N)NC(=O)[C@H](Cc1c[nH]cn1)NC(=O)[C@H](CO)NC(=O)[C@H](Cc1c[nH]cn1)NC(=O)[C@H](Cc1c[nH]cn1)NC(=O)[C@H](CCCCN)NC(=O)[C@H](CCC(=O)O)NC(=O)[C@H](Cc1c[nH]cn1)NC(=O)[C@H](Cc1ccccc1)NC(=O)[C@H](CCCCN)NC(=O)[C@H](CCCNC(=N)N)NC(=O)[C@H](CCCNC(=N)N)NC(=O)[C@H](Cc1ccc(O)cc1)NC(=O)CNC(=O)[C@H](Cc1c[nH]cn1)NC(=O)[C@H](Cc1c[nH]cn1)NC(=O)[C@H](CCCNC(=N)N)NC(=O)[C@H](CCCCN)NC(=O)[C@H](CCC(=O)O)NC(=O)[C@H](Cc1c[nH]cn1)NC(=O)[C@H](COP(=O)(O)O)NC(=O)[C@@H](N)CC(=O)O)C(=O)N[C@@H](Cc1ccc(O)cc1)C(=O)N[C@@H](CC(=O)O)C(=O)N[C@@H](CC(N)=O)C(=O)O [Hst1] (H-D[pS]HEKRHHGYRRKFHEKHHSHREFPFYGDYGSNYLYDN-OH; N-terminus and C-terminus assumed)
TMEM97 (108-176)
  ΔS: 11.6±3.4 cal/mol K
TMEM97 (108-176); 25° C.
  Kd: 890 ± 200 nM
[1]
  % Rmax: 38%
  Kd: 2400 nM
[1]; listed as Hst1(1-38)
  % Rmax: (% Rmax = 23%)
[2]
  BAK-induced loss of cell viability: abrogated
[3]; CD in solution
  disordered regions: over 50%
[3]; [4]
  Helix: 0.02
  Strand: 0.29
  Turns: 0.15
  Unordered: 0.54
NPC1 KD cells
  LC3 levels: dose-dependent reduction in LC3 levels
